What was measured:
Sprague Dawley rats = assay: 28-day intravenous toxicity study in rats, liver histopathology (subacute hepatitis); type: in vivo
Description: Potential toxicity of Compound 1-HCl was evaluated by intravenous administration to Sprague Dawley rats for 28 days. This study was conducted in compliance with FDA Good Laboratory Practice Standards, 21 CFR 58 and in accordance with OECD Principles of Good Laboratory Practice.
One hundred twelve Sprague Dawley—HsD: SD rats were randomly divided into eight groups and treated with Compound 1 (“test article”) or vehicle, by intravenous administration via the lateral tail vein (slow bolus) (Table 1).
Animals in Groups 1-4 were subjected to a complete necropsy examination. Protocol-specified necropsy procedures included the recording of organ weights (adrenals, brain, hearts, kidneys, liver, testes, ovaries, spleen, thyroids, parathyroids), examination of the external body surface, examination of all orifices, and examination of the cranial, thoracic, and abdominal cavities and their contents. Post-fixation weights for the thyroids/parathyroids were recorded. The following protocol-specified tissues were collected at necropsy: animal identification (not evaluated), abnormalities (gross findings), adrenals, aorta, brain, cecum, cervix, colon, duodenum, epidiymides, esophagus, eye with optic nerve, femur with articular surface, heart, ileum, injection site, jejunum, kidneys, lacrimal glands (exorbital), larynx, liver, lung with mainstem bronchus, mammary gland, mandibular lymph nodes, mesenteric lymph nodes, ovaries, pancreas, pituitary, prostate, rectum, salivary glands, sciatic nerve, seminal vesicles, skeletal muscle (thigh), skin, spinal cord (cervical, midthoracis, lumbar), spleen, sternum with bone marrow, stomach, testes, thymus, thyroid/parathyroid, tongue, trachea, urinary bladder, uterus, and vagina.
On day 29, animals were weighed and sacrificed by CO2 inhalation. Protocol-specific tissues were preserved in 10% neutral buffered formalin (NBF). Protocol-requires tissues were embedded in paraffin, sectioned at approximately 5 microns, and processed to slides stained with hematoxylin and eosin (H&E). Histopathological evaluation was performed by a veterinary pathologist on all rats in Group 1 and Group 4 sacrificed on day 29, as well as for all early deaths. Livers for animals in Groups 2 and 3 were evaluated microscopically.

[1] = system: LPS induced TNF-alpha in monocytes; assay: LPS induced TNF-alpha in monocytes (TNF alpha assay); type: cell-based; conditions: Monocyte; compound 10 uM; 5 ng/mL LPS; read-out: Mean Percent Inhibition of TNF-alpha using 5 ng/mL LPS
Description: This test is a standard methodology for assessing the anti-inflammatory activity of compounds. Table 1 provides Percent Inhibition of LPS induced TNF-alpha in monocytes data for 18 hydroxylamine compounds of the invention. Compounds at different concentrations (0, 1, 2.5 and 10 uM) were incubated with 100 ul freshly collected heparinized blood for 10 minutes. […] Following incubation with LPS, PBS was added (800 uL) and samples were spun for 10 minutes at 1500 g. TNFα protein concentrations were measured using R&D Systems high sensitivity ELISA kit. THP-1 cells (0.5×10^6 cells/mL) were incubated with the compounds (0, 1, 2.5 and 10 uM) for 3 hrs in humidified chamber, 37° C., 5% CO2, 2% FBS in RPMI medium. Cells were induced with 25 ng/mL LPS for another 3 hrs. Cells were collected and spun at 1500 g for 10 minutes. Supernatant was collected and analyzed for TNFα.

SMILES: CC1(C)CC(OC(=O)C2CC2)CC(C)(C)N1O.Cl [Compound 1, 1-Hydroxy-4-cyclopropanecarbonyloxy-2,2,6,6-tetramethylpiperidine hydrochloride]
- Subacute hepatic inflammation (hepatitis) incidence, number of rats with minimal subacute hepatitis (Sprague Dawley rats; Group 2, 1.0 mg/kg/day i.v. 28 days, female rats (8 per group), vehicle Group 1 females 6/8): one
- Subacute hepatic inflammation (hepatitis) incidence (Sprague Dawley rats; Group 2, 1.0 mg/kg/day i.v. 28 days, male rats (8 per group), vehicle Group 1 males 8/8): not present in any
- Subacute hepatic inflammation (hepatitis) incidence (Sprague Dawley rats; Group 3, 2.5 mg/kg/day i.v. 28 days, female rats (8 per group), vehicle Group 1 females 6/8): not present in any
- Subacute hepatic inflammation (hepatitis) incidence, number of rats with minimal subacute hepatitis (Sprague Dawley rats; Group 3, 2.5 mg/kg/day i.v. 28 days, male rats (8 per group), vehicle Group 1 males 8/8): one
- Subacute hepatic inflammation (hepatitis) incidence (Sprague Dawley rats; Group 4, 7.5 mg/kg/day i.v. 28 days, female rats (8 per group), vehicle Group 1 females 6/8): not present in any
- Subacute hepatic inflammation (hepatitis) incidence (Sprague Dawley rats; Group 4, 7.5 mg/kg/day i.v. 28 days, male rats (8 per group), vehicle Group 1 males 8/8): not present in any
- Effect on background liver inflammation (idiopathic lesion) in treated rats (Sprague Dawley rats; Groups 2-4 (1.0-7.5 mg/kg/day i.v. 28 days), male and female rats): reduction in the incidence of this idiopathic lesion
- inhibition at 10 µM [1]: 68 ± 6%

Reference: patent publication US20070197593A1, “HYDROXYLAMINES AND DERIVATIVES FOR TREATMENT OF INFLAMMATORY CONDITIONS OF THE LIVER” (priority 2006, published 2007)
